# Experimental data as given in patent US20150139901A1, “Radioactive Rhodium Complexes, Preparation Methods and Uses Thereof” (Institut National de la Sante et de la Recherche Medicale …, priority 2012, published 2015).
# Experiment: Stability test in human serum (15 h incubation, TLC control of supernatant)
# Type: in vitro ADME
# Details: controlled by TLC
# Procedure: The compound of Example 4 (7.5-10.5 MBq) was prepared according to the previously described procedure. The resulting organic solution was evaporated until the final volume was about 50 μL. The complex was purified by silica gel chromatography using DCM/MeOH (99/1) as mobile phase. Activity was counted for each 500 μL aliquots and fractions of interest were concentrated under nitrogen flux. One ml of human serum was then added. The solution was gently stirred and divided into two aliquots incubated 15 h. respectively at 4° C. and 37° C. Then, serum proteins were precipitated by adding 750 μl of organic solvents mixture (ACN/DCM 100/1). Supernatant was separated by centrifugation at 4000 rpm and controlled by TLC.
substance,measurement,setting,value
(^211At)(1-benzyl-3-(4-nitrophenyl)imidazolidene)(cyclooctadiene) rhodium(+I) [Example 4],degradation in human serum,"incubated 15 h, result sentence prints 30° C. (method: 37° C.)",No degradation
same,degradation in human serum,incubated 15 h at 4° C.,No degradation
